{
  "source": "patent US20170056336A1",
  "about": "“CO-TARGETING ANDROGEN RECEPTOR SPLICE VARIANTS AND MTOR SIGNALING PATHWAY FOR THE TREATMENT OF CASTRATION-RESISTANT PROSTATE CANCER” (British Columbia Cancer Agency Branch, priority 2015, published 2017)",
  "key": {"[1]": {"tested_on": "LNCaP95 cells", "test": "Cell proliferation BrdU immunoassay", "format": "cell-based, human", "conditions": "R1881 0.1 nM, 48 h, serum-free, Compound A 25 uM, enzalutamide 10 uM, BEZ-235 15 nM, everolimus 10 nM"}, "[2]": {"tested_on": "LNCaP95 xenografts", "test": "Western blot analyses of protein lysates from xenografts", "format": "in vivo, mice"}, "[3]": {"target": "CDK1 (Homo sapiens, UniProt P06493)", "sequence (P06493 whole entry, species assumed)": "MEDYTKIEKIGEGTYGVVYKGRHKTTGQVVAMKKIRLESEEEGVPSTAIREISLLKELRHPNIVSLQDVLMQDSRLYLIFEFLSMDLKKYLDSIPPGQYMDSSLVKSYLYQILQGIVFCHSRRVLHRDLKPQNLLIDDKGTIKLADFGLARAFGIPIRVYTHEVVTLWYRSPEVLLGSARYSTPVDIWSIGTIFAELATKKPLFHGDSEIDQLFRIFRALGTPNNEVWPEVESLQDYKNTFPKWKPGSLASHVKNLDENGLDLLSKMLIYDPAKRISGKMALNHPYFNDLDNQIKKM", "sequence (P14635 whole entry partner, species assumed)": "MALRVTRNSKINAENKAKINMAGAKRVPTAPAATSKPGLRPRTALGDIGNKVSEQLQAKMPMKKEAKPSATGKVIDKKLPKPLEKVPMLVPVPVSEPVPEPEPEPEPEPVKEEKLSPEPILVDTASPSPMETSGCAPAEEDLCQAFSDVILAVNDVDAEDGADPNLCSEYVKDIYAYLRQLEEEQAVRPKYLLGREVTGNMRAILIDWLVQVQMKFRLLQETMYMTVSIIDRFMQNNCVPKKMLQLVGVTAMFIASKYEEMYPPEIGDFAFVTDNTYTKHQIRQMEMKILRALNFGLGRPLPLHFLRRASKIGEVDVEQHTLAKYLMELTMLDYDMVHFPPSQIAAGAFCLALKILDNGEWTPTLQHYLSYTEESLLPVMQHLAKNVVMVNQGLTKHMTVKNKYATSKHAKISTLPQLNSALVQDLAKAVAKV", "conditions": "higher concentrations; read-out: concentration inhibiting CDK1; cited from earlier work"}, "[4]": {"target": "T1, AR-V7 (Homo sapiens, UniProt P10275)", "T1 construct": "expressed in transfected cells; host or cells: Cos-1", "T1 sequence (P10275 1-644 isoform P10275-3)": "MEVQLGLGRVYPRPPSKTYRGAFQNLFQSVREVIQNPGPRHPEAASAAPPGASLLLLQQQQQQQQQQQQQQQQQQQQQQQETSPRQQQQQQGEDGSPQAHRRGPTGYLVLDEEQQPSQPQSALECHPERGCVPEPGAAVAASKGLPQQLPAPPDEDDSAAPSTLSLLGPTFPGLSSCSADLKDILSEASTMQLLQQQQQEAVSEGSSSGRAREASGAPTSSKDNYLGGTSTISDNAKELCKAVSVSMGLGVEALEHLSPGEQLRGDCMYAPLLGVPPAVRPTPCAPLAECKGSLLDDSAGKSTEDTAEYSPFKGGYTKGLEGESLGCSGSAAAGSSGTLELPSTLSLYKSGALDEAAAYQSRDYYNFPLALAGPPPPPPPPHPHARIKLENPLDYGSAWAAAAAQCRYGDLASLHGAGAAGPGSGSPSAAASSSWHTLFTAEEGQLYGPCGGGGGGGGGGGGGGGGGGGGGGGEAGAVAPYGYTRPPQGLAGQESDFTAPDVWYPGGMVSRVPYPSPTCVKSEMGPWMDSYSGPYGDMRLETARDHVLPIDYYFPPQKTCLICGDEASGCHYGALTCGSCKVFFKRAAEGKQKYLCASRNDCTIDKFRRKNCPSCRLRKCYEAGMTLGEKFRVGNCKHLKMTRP", "test": "PB-luciferase assay in Cos-1 cells transfected with AR-V7", "format": "cell-based", "conditions": "24 h, serum-free", "description": "Ectopic protein levels of AR-V7 and AR-V567 in Cos-1 cells are shown relative to endogenous levels of FL-AR in LNCaP cells."}, "[5]": {"tested_on": "mTOR and AR pathways in parental LNCaP cells", "test": "Western blot analysis of mTOR and AR pathways in parental LNCaP cells", "format": "cell-based, human", "conditions": "BEZ-235 15 nM"}, "[6]": {"target": "EGFR/Erb1 (Homo sapiens, UniProt P00533)", "sequence (P00533 25-1210)": "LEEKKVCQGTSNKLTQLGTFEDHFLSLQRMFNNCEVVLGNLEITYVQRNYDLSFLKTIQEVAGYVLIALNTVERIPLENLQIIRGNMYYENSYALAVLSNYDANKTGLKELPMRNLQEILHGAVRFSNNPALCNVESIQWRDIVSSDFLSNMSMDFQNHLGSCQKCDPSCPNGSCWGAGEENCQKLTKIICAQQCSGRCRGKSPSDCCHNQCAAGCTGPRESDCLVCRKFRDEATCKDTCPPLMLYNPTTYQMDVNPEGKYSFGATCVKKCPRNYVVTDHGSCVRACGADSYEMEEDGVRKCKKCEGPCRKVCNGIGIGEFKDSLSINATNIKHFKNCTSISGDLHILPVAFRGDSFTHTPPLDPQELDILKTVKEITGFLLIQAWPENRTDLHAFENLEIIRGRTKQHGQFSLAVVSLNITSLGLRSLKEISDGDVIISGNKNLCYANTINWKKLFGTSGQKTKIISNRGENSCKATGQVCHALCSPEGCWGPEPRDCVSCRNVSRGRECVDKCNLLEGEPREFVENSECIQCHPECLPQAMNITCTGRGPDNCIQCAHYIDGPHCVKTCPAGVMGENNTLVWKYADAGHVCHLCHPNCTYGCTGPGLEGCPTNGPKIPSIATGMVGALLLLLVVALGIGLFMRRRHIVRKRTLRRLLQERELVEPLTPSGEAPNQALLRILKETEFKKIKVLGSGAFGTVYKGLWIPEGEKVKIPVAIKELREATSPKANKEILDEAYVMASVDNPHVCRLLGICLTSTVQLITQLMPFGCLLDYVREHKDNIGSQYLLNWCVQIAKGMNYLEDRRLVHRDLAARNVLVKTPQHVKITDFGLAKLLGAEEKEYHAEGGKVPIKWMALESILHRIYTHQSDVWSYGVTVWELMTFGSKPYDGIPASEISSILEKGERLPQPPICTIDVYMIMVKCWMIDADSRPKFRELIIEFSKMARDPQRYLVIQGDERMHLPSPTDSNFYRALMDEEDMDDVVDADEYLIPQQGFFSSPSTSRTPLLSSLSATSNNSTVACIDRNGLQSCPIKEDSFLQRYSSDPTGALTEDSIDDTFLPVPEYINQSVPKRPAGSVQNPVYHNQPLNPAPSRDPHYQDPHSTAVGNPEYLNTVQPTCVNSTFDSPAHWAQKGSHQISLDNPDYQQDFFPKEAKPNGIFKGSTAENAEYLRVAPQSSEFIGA", "conditions": "higher concentrations; read-out: concentration inhibiting EGFR/Erb1; cited from earlier work"}, "[7]": {"target": "T2, AR NTD (Homo sapiens, UniProt P10275)", "T2 sequence (P10275 1-558)": "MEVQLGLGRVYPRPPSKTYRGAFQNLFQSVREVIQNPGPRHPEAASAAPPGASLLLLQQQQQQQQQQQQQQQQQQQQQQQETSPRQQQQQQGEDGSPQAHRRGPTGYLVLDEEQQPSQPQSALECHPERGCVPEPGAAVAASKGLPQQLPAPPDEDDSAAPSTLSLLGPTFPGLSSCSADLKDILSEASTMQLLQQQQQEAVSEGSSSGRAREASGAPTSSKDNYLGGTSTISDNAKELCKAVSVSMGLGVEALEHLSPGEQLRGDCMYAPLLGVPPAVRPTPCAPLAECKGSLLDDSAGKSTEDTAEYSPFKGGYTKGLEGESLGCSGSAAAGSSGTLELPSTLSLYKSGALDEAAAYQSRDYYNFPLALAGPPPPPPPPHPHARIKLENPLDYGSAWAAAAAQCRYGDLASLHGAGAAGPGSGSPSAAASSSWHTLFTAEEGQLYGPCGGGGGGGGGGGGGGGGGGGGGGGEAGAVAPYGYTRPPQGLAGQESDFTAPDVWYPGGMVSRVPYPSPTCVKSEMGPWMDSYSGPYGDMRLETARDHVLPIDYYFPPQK", "test": "AR NTD transactivation assay in LNCaP95 cells", "format": "cell-based", "conditions": "24 h", "description": "Transactivation assays of the AR NTD were performed in LNCaP and LNCaP95 cells cotransfected with p5xGal4UAS-TATA-luciferase and AR NTD-Gal4DBD (FIG. 2D). […] LNCaP95 cells were harvested 24 h after the treatment of indicated compounds.\nThe AR NTD is essential for full transcriptional activities (Quayle, S. N. et. al., PNAS 2007, 104, 1331-1336). In LNCaP cells, transactivation of the AR NTD can be induced with IL-6 or by stimulation of the PKA pathway with FSK. In LNCaP95 cells, there is high intrinsic activity of the AR NTD which cannot be further induced by stimulation of these pathways."}, "[8]": {"tested_on": "mTOR and AR pathways in LNCaP95 cells", "test": "Western blot analysis of mTOR and AR pathways in LNCaP95 cells", "format": "cell-based, human", "conditions": "LNCaP95 cells", "description": "Cells were harvested and whole-cell lysate (10 to 15 ug) was subjected to SDS-PAGE. Antibodies used were: AR (1:1000; Santa Cruz), AR-V7 (1:400; Precision), p110α (1:500; BD Bioscience), p110β (1:1000; abcam), […] (1:1000; abcam), p110δ (1:1000; abcam), UBE2C (Boston Biochem; 1:1000), PTEN (1:1000), pS6 (1:2000), pAktThr308 (1:1000), pAktSer473 (1:2000), p4EBP1 (1:1000), total-Akt (1:1000), total-S6 (1:1000), total-4EBP1 (1:1000), pERK/MAPK (1:1000), total-ERK/MAPK (1:1000) from Cell Signaling technology (Danvers, Mass.). β-actin (1:10,000, Abcam) was used as a loading control.\nProtein levels of PSA were undetectable in LNCaP95 cells."}, "[9]": {"conditions": "harvested tumors, Compound A 100 mg/kg, BEZ-235 5 mg/kg"}, "[10]": {"conditions": "xenografts harvested 1 h after last treatment, BEZ-235 5 mg/kg"}, "[11]": {"conditions": "BEZ-235 orally daily at 5 mg/kg body weight"}, "[12]": {"conditions": "absence of androgen, BEZ-235 15 nM"}},
  "data": [
    {"compound": "Cn1c(=O)n(-c2ccc(C(C)(C)C#N)cc2)c2c3cc(-c4cnc5ccccc5c4)ccc3ncc21", "note": "[BEZ-235, 2-methyl-2-[4-(3-methyl-2-oxo-8-quinolin-3-ylimidazo[4,5-c]quinolin-1-yl)phenyl]propanenitrile]", "values": [
      {"measurement": "proliferation (BrdU incorporation)", "setting": "[1]", "result": "inhibited"},
      {"measurement": "levels of p4EBP1", "setting": "[2]; harvested tumors, normalized to total 4EBP1", "result": "no significant change"},
      {"measurement": "levels of pAkt", "setting": "[2]; harvested tumors, normalized to total Akt", "result": "no significant change"},
      {"measurement": "protein levels of UBE2C", "setting": "[2]; [9]", "result": "reduced"},
      {"measurement": "protein levels of pS6", "setting": "[2]; [9]", "result": "reduced"},
      {"measurement": "protein levels of FKBP5", "setting": "[2]; in vivo, monotherapies", "result": "reduced"},
      {"measurement": "protein levels of AR-V7", "setting": "[2]; [10]", "result": "reduced"},
      {"measurement": "protein levels of FL-AR", "setting": "[2]; [10]", "result": "reduced"},
      {"measurement": "IC50", "setting": "[3]", "result": "> 10", "unit": "µM"},
      {"measurement": "transcriptional activity of AR-V7", "setting": "[4]", "result": "no effect"},
      {"measurement": "mortality of the animals", "setting": "BEZ-235 45 mg/kg body weight", "result": 66, "unit": "%"},
      {"measurement": "mTOR in tumors", "setting": "[11]", "result": "sufficient to block"},
      {"measurement": "pAkt in tumors", "setting": "[11]", "result": "not"},
      {"measurement": "toxicity", "setting": "[11]", "result": "non-toxic"},
      {"measurement": "pAkt", "setting": "[5]; LNCaP cells", "result": "no effect"},
      {"measurement": "levels of FL-AR", "setting": "[5]; parental LNCaP cells, absence of androgen", "result": "increased"},
      {"measurement": "PSA protein", "setting": "[5]; parental LNCaP cells, regardless of androgen status", "result": "increased"},
      {"measurement": "IC50", "setting": "[6]", "result": "> 8.5", "unit": "µM"},
      {"measurement": "intrinsic activity of AR NTD", "setting": "[7]", "result": "no effect"},
      {"measurement": "pAkt", "setting": "[8]; 500 nM BEZ-235", "result": "inhibited"},
      {"measurement": "levels of UBE2C", "setting": "[8]; 48 h", "result": "decreased"},
      {"measurement": "pAkt", "setting": "[8]; BEZ-235 15 nM, everolimus", "result": "did not impact"},
      {"measurement": "levels of AR-V7", "setting": "[8]; [12]", "result": "increased"},
      {"measurement": "levels of FL-AR", "setting": "[8]; [12]", "result": "increased"},
      {"measurement": "protein levels of FL-AR", "setting": "[8]; titration experiments", "result": "increased"},
      {"measurement": "pS6 ribosomal protein", "setting": "[8]; titration, BEZ-235 15 nM, everolimus 10 nM", "result": "inhibited"}
    ]}
  ]
}
